# From patent publication US20080188530A1 (priority 2004, published 2008)
# Where two headings read alike, the source gives them in different places.
# Experiments:
# [1] = system: Pyrenophora [syn. Drechslera] teres; test: Activity against net blotch of barley caused by Pyrenophora teres (protective spray on potted barley seedlings); type: in vivo; conditions: barley cv. Igri, inoculated 5 days after spraying, rated after 6 days, efficacy in % of untreated control (Abbot)
# Phytophthora infestans = type: in vivo; conditions: tomato plants, infected 5 days after spraying, rated after 6 days, efficacy in % of untreated control (Abbot)
SMILES,Observed efficacy (%) ([1]; 16 ppm),Observed efficacy (%) (Phytophthora infestans; 16 ppm),Observed efficacy (%) ([1]; 63 ppm),Observed efficacy (%) (Phytophthora infestans; 63 ppm)
"COCC(=O)N(c1c(C)cccc1C)C(C)C(=O)OC (racemic) [metalaxyl, methyl N-(methoxyacetyl)-N-(2,6-xylyl)-DL-alaninate]",0,,,
"O=C(Nc1ccccc1-c1ccc(Cl)cc1)c1cccnc1Cl [boscalid, 2-chloro-N-(4′-chlorobiphenyl-2-yl)nicotinamide]",,0,,
"CO/C=C(/C(=O)OC)c1ccccc1CO/N=C(C)/C=C/c1ccc(Cl)cc1 [enestroburin, methyl 2-{2-[3-(4-chlorophenyl)-1-methylallylideneaminooxymethyl]phenyl}-3-methoxyacrylate]",44,0,56,11
